Results: patent US20220143023A1, “COMPOUNDS WITH ANTI-TUMOR ACTIVITY AGAINST CANCER CELLS BEARING EGFR OR HER2 EXON 20 INSERTIONS” (Board of Regents, The University of Texas System, priority 2019, published 2022)
Entries after “also recorded” stand apart in the source; their conditions may differ.

Tests used:
[1] = target: Ba/F3 cells expressing EGFR V769L (Homo sapiens, UniProt P00533, V769L, cells depend on it); experiment: Ba/F3 cell viability, poziotinib IC50; format: cell-based
[2] = target: Ba/F3 cells expressing EGFR V769insGSV (Homo sapiens, UniProt P00533, INS769GSV, cells depend on it); experiment: Ba/F3 cell viability, poziotinib IC50; format: cell-based
[3] = target: Ba/F3 cells expressing EGFR V769insMASVD (Homo sapiens, UniProt P00533, INS769MASVD, cells depend on it); experiment: Ba/F3 cell viability, poziotinib IC50; format: cell-based
[4] = tested on: Ba/F3 EGFR exon 20 insertions compared to EGFR T790M mutant Ba/F3 cell lines; experiment: Ba/F3 IC50 of EGFR exon 20 insertions normalized to EGFR T790M; format: cell-based; conditions: 72 hours
Description: All cell lines were free of Mycoplasma.
Each experiment was replicated 3 times unless indicated.

[5] = target: Ba/F3 cell lines expressing HER2 exon 20 insertion mutations (Homo sapiens, UniProt P04626, cells depend on it, form not given); experiment: Ba/F3 cell viability (Cell Titer Glo), HER2 exon 20 insertions; format: cell-based
[6] = tested on: cell surface HER2 on MCF10A cells overexpressing HER2 mutations; experiment: FACS of cell surface HER2 expression; format: cell-based, human; conditions: 10 nM, 24 hours, average
Procedure: MCF10A cells overexpressing HER2 mutations were plated overnight in a 6-well plate, then treated with 10 nM poziotinib. After 24 hours, cells were washed twice with PBS, and trypsinized. Cells were then resuspended in 0.5% FBS in PBS, and stained with anti-HER2-FITC antibody from Biolegend (#324404) for 45 minutes on ice. Cells were washed with 0.5% FBS in PBS twice, and analyzed by flow cytometry. IgG and unstained controls were used for gating.

[7] = target: Ba/F3 cells expressing EGFR H773insAH (Homo sapiens, UniProt P00533, INS773AH, cells depend on it); experiment: Ba/F3 cell viability, poziotinib IC50; format: cell-based
HER2 A775insYVMA mice = experiment: HER2 exon 20 GEMM tumor burden by MRI; format: in vivo
Procedure: (§1) EGFR D770insNPG and HER2 A775insYVMA GEMMs were generated as previously described (Perera et al., 2009; Cho et al., 2013). Mice were handled in accordance with Good Animal Practices as defined by the Office of Laboratory Animal Welfare and done in with approval from Dana-Farber Cancer Institute Institutional Animal Care and Use Committee (Boston, Mass.). Mice were fed a continuous doxycycline diet from 6 weeks of age. Tumor volume was determined by Mill as previously described (Perera et al., 2009; Cho et al., 2013). Mice with equal initial tumor volume were non-blindly randomized to vehicle and 10 mg/kg poziotinib daily upon obvious tumor formation determined by Mill. Mice humanly euthanized for events unrelated to tumor burden were excluded from final analysis.

[8] = target: Ba/F3 cells expressing EGFR R776H (Homo sapiens, UniProt P00533, R776H, cells depend on it); experiment: Ba/F3 cell viability, poziotinib IC50; format: cell-based
[9] = target: Ba/F3 cells expressing EGFR P772insDNP (Homo sapiens, UniProt P00533, DUP770-772, cells depend on it); experiment: Ba/F3 cell viability, poziotinib IC50; format: cell-based
[10] = tested on: MCF10A cells expressing HER2 G778dupGSP; experiment: MCF10A cell viability, HER2 G778dupGSP; format: cell-based; conditions: Homo sapiens, MCF-10A; 72 hours
Procedure: (§2) Briefly, 2000-3000 cells per well were plated in 384-well plates (Greiner Bio-One) in technical triplicate. […] After 3 days, 11 μL of Cell Titer Glo was added to each well. Plates were shaken for 15 minutes, and bioluminescence was determined using a FLUOstar OPTIMA multi-mode micro-plate reader (BMG LABTECH). Bioluminescence values were normalized to DMSO treated cells, and normalized values were plotted in GraphPad Prism using non-linear regression fit to normalized data with a variable slope.
(§3) MCF10A cells were purchased from ATCC and were cultured in DMEM/F12 media supplemented with 1% penicillin/streptomycin, 5% horse serum (sigma), 20 ng/ml EGF, 0.5 mg/ml hydrocortisone, and 10 μg/ml insulin. […] Two days after transduction, 0.5 μg/ml puromycin (Invitrogen) was added to the RPMI media. […] CW-2 cells were provided by the Riken cell line database under MTA, and were maintained in RPMI containing 10% FBS and 1% penicillin/streptomycin.

[11] = target: Ba/F3 cells expressing EGFR A763insLQEA (Homo sapiens, UniProt P00533, INS763LQEA, cells depend on it); experiment: Ba/F3 cell viability, poziotinib IC50; format: cell-based
[12] = target: T1, Ba/F3 cells expressing EGFR WT (Homo sapiens, UniProt P00533); experiment: Ba/F3 cell viability, poziotinib IC50; format: cell-based
T1 construct: puro-EGFR WT from Addgene (#11011)

[13] = target: Ba/F3 cells expressing EGFR R776C (Homo sapiens, UniProt P00533, R776C, cells depend on it); experiment: Ba/F3 cell viability, poziotinib IC50; format: cell-based
[14] = target: T2, Ba/F3 cells expressing EGFR D770insNPG (Homo sapiens, UniProt P00533, INS772GNP, cells depend on it); experiment: Ba/F3 cell viability, poziotinib IC50; format: cell-based
T2 construct: Purchased from Addgene (#11016)

[15] = tested on: Ba/F3 cells expressing HER2 exon 19, 20 and 21 mutations; experiment: Ba/F3 HER2 mutant panel drug screen (Cell Titer Glo); format: cell-based; conditions: 72 hours, cell viability
Procedure: Ba/F3 cell lines were established as previously described. Briefly, stable Ba/F3 cell lines were generated by retroviral transduction of Ba/F3 cell line for 12 hours. […] Three days after transduction, 2 μg/ml puromycin (Invitrogen) was added to the RPMI media. After 5 days of selection, cells were stained with FITC-HER2 (Biolegend) sorted by FACS. Cell lines were then grown in the absence of IL-3 for two weeks and cell viability was assessed every three days using the Cell Titer Glo assay (Progema).
as §2

[16] = target: Ba/F3 cells expressing EGFR V774M (Homo sapiens, UniProt P00533, V774M, cells depend on it); experiment: Ba/F3 cell viability, poziotinib IC50; format: cell-based
EGFR D770insNPG mice = experiment: EGFR exon 20 GEMM tumor burden by MRI; format: in vivo
Procedure: as §1

[17] = target: Ba/F3 cells expressing EGFR N771dupN G724S (Homo sapiens, UniProt P00533, G724S/DUP771-771, cells depend on it); experiment: Ba/F3 cell viability, poziotinib IC50; format: cell-based
[18] = target: T3, Ba/F3 cells expressing EGFR A767insASV (Homo sapiens, UniProt P00533, cells depend on it, form not given); experiment: Ba/F3 cell viability, poziotinib IC50; format: cell-based
T3 construct: Purchased from Addgene (#32066)

p-EGFR = experiment: Western blotting of p-EGFR in CUTO14 cell line; format: cell-based, human; conditions: 3 hours
Description: All antibodies were purchased from Cell Signaling Technology with the exception of total EGFR (BD Transduction Laboratories) and GAPDH (Calbiochem).

[19] = target: Ba/F3 cells expressing EGFR V769insGVV (Homo sapiens, UniProt P00533, INS769GVV, cells depend on it); experiment: Ba/F3 cell viability, poziotinib IC50; format: cell-based
[20] = tested on: MCF10A cells expressing HER2 Y772dupYVMA; experiment: MCF10A cell viability, HER2 Y772dupYVMA; format: cell-based; conditions: Homo sapiens, MCF-10A; 72 hours
Procedure: as §2, §3

[21] = target: Ba/F3 cells expressing EGFR H773insH (Homo sapiens, UniProt P00533, DUP773-773, cells depend on it); experiment: Ba/F3 cell viability, poziotinib IC50; format: cell-based
[22] = 10 mg/kg orally daily, 4 weeks, MRI
[23] = 10 mg/kg, 5 days/week, 12 weeks

Chain of Ba/F3 cell lines expressing HER2 exon 20 insertion mutations (P04626 23-1255 limits assumed, stated change not applied): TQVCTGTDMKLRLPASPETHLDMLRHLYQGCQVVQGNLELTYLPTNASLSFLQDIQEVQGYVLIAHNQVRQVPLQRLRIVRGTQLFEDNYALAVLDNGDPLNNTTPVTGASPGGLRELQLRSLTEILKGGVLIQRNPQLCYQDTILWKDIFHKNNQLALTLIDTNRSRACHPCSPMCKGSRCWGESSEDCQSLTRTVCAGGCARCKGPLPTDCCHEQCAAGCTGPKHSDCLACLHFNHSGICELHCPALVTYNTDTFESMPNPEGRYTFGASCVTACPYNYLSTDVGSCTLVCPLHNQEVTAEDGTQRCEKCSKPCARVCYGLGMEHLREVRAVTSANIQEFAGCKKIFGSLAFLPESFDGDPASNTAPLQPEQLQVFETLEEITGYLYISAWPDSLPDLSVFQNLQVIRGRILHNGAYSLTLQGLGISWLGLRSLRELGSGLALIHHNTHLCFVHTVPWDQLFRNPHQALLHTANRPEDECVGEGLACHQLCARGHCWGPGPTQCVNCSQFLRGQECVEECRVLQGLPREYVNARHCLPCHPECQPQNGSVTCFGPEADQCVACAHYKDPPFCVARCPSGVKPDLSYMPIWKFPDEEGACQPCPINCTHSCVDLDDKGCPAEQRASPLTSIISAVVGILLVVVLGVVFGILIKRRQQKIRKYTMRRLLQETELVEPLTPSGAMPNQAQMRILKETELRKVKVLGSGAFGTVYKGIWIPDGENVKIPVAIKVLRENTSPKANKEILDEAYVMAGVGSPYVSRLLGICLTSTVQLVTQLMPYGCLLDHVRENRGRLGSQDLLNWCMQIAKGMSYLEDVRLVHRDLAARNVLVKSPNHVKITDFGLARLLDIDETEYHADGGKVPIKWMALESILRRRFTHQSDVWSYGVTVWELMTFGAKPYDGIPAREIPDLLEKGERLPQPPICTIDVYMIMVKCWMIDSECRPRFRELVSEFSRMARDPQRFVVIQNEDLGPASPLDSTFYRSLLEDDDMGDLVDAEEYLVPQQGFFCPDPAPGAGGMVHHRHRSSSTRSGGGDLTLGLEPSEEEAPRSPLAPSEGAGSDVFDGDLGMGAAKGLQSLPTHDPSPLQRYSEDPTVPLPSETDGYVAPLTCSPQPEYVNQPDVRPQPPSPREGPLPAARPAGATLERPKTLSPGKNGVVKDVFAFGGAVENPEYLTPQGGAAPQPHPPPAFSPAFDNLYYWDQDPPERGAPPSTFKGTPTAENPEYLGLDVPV
Chain of Ba/F3 cells expressing EGFR V769L (P00533 whole entry V769L): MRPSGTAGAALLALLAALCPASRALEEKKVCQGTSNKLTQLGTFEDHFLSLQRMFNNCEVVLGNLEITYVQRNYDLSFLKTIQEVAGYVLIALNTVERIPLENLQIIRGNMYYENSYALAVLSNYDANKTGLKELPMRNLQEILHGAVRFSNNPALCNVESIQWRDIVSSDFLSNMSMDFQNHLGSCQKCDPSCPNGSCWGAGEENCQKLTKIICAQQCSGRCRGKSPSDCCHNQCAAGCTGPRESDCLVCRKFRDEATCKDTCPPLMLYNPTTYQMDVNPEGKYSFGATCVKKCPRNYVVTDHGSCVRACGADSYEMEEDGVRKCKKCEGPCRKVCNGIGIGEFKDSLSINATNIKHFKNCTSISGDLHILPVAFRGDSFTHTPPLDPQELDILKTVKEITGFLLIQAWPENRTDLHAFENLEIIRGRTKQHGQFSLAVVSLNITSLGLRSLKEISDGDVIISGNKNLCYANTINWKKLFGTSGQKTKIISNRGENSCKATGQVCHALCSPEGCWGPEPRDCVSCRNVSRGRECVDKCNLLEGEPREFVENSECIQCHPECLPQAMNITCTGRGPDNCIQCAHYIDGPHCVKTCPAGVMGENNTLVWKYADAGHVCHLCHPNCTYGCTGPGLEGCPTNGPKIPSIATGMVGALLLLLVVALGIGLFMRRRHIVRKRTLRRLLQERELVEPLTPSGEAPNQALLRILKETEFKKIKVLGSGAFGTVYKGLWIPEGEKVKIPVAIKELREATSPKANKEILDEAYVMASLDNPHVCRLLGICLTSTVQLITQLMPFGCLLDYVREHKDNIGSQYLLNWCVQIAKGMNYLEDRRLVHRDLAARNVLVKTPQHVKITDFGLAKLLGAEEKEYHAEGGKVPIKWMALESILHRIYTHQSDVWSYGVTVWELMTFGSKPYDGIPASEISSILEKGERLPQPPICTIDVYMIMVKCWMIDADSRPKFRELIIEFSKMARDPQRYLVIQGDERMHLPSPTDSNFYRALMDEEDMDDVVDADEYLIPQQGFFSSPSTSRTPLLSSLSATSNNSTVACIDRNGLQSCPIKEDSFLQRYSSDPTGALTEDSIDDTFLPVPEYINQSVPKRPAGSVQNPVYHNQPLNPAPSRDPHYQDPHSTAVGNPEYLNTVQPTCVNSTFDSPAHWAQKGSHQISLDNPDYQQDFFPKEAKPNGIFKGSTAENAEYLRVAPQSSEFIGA
Chain of Ba/F3 cells expressing EGFR R776H (P00533 whole entry R776H): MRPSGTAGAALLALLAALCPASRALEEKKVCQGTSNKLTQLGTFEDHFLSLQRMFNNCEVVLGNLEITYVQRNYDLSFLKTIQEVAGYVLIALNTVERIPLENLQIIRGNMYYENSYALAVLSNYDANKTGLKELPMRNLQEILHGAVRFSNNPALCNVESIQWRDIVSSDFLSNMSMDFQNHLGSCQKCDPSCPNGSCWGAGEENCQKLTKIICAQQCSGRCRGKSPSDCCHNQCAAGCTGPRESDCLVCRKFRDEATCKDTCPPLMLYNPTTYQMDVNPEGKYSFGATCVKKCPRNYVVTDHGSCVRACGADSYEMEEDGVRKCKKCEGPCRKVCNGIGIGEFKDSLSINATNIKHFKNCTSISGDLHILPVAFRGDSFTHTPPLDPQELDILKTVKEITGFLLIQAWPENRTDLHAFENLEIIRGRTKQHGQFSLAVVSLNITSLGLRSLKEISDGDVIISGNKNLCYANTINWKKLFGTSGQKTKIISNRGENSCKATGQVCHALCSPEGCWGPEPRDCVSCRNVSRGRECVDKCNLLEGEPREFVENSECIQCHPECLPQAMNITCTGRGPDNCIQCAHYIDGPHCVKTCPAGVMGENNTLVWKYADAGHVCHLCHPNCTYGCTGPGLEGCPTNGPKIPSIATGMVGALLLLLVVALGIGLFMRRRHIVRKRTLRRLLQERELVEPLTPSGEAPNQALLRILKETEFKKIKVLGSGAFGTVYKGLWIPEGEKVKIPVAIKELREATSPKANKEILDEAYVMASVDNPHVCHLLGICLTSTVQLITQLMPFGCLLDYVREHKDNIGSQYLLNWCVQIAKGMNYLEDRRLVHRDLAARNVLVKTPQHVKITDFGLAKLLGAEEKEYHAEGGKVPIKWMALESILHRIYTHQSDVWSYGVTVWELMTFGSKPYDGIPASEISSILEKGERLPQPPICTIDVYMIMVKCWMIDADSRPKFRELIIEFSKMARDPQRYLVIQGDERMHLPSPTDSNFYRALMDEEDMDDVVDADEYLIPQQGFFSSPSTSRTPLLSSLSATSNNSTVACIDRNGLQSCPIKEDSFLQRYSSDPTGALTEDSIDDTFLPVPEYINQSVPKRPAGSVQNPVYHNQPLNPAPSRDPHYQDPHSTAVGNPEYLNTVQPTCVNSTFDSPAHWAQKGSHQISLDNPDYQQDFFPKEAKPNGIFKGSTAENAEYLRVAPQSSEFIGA
T2 sequence (P00533 with tags, fused parts or gaps INS772GNP): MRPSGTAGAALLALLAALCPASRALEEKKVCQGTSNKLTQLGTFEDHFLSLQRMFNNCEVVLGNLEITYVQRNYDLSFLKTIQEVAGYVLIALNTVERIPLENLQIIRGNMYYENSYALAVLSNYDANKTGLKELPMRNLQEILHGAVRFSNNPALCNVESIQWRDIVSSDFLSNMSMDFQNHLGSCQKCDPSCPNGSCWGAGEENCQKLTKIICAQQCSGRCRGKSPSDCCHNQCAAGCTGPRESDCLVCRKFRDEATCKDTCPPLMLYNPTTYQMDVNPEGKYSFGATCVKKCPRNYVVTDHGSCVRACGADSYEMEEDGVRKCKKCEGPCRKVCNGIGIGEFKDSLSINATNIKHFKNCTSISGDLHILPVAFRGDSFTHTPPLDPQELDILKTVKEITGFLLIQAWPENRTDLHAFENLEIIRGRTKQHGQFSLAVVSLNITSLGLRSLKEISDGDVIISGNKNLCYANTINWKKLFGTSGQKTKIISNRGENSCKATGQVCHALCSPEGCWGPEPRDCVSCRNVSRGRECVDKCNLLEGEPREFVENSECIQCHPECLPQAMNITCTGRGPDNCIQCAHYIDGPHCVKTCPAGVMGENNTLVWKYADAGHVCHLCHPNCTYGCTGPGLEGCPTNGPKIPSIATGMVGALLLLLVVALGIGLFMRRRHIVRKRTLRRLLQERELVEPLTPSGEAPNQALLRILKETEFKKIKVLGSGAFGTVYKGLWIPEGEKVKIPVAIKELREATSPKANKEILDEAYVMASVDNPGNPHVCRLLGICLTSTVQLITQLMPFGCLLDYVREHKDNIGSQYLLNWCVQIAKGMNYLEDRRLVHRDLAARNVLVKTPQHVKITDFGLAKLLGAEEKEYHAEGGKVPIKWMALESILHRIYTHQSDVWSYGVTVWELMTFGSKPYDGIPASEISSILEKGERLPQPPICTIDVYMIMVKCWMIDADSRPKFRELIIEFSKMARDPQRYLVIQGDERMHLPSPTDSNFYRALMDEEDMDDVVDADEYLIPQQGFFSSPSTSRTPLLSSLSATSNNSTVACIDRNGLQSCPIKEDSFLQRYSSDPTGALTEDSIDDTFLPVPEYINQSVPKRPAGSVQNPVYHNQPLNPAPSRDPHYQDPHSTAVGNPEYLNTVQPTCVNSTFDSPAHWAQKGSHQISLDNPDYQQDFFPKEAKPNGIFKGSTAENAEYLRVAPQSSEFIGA

C=CC(=O)N1CCC(Oc2cc3c(Nc4ccc(Cl)c(Cl)c4F)ncnc3cc2OC)CC1 [poziotinib, 1-[4-[4-(3,4-dichloro-2-fluoroanilino)-7-methoxyquinazolin-6-yl]oxypiperidin-1-yl]prop-2-en-1-one]
GI50 [1]: 0.392 nM
GI50 [2]: 1.23 nM
GI50 [3]: 1.12 nM
times EGFR exon 20 insertions more sensitive than EGFR T790M mutants [4]: 65 times
times more potent than afatinib, HER2 exon 20 mutant Ba/F3 ([5]; from average IC50): 6 times
times more potent than dacomitinib, HER2 exon 20 mutants ([5]; from average IC50): 6 times
times more potent than osimertinib, HER2 exon 20 mutant Ba/F3 ([5]; from average IC50): 200 times
GI50 ([5]; read-out: IC50, Ave HER2 exon 20 insertions (N = 6 cell lines), Ba/F3, 72 hours, average over cell lines): 1.9 nM
increase of cell surface HER2 expression [6]: 2 fold
GI50 [7]: 2 nM
reduction of tumor burden, HER2 exon 20 GEMM (HER2 A775insYVMA mice; [22]): 60%
response at 12 weeks, HER2 GEM model (HER2 A775insYVMA mice; [23]): durable regression
GI50 [8]: 0.084 nM
GI50 [9]: 2.89 nM
IC50 [10]: 4.5 nM
GI50 [11]: 0.082 nM
GI50 [12]: 6.75 nM
GI50 [13]: 0.155 nM
GI50 [14]: 1.24 nM
activity against HER2 mutant Ba/F3 panel (exons 19, 20, 21) [15]: had inhibitory activity; also recorded: lowest average IC50
GI50 [16]: 0.095 nM
reduction of tumor burden, EGFR exon 20 GEMM (EGFR D770insNPG mice; [22]): 85%
response at 12 weeks, EGFR GEM model (EGFR D770insNPG mice; [23]): durable regression
GI50 [17]: 1.1 nM
GI50 [18]: 0.275 nM
p-EGFR after treatment, CUTO-14 (quantified western blots) (p-EGFR): decreased p-EGFR
GI50 [19]: 1.25 nM
IC50 [20]: 8.3 nM
GI50 [21]: 18.1 nM
